{"source": "patent US12491187B2", "about": "“Use of MCT1 inhibitors to enhance insulin sensitivity” (H. LEE MOFFIT CANCER CENTER AND RESEARCH INSTITUTE, INC., priority 2022, dated 2025)", "test_system": "differentiated 3T3-L1 (WT) cells", "assay": "Glucose uptake (Glucose Uptake-Glo) in WT adipocytes", "type": "cell-based, murine", "conditions": "RO-3306 (10 μM) co-treated with AZD3965 (1 μM)", "procedure": "Glucose Uptake: 3T3-L1 cells were seeded and differentiated in clear bottom 96-well plates (Corning®). After differentiation, cells were treated with or without […] AZD3965 for 24 hr, 48 hr or 72 hr as illustrated in FIG. 7 (schematic outline of experimental procedure). The cells were incubated in serum free media the night before performing the assay. The following day/morning, media was changed to serum and glucose free media for 2 hr prior to the experiment. Cells were then stimulated with 175 nM Insulin or vehicle (PBS) for 30 minutes. Glucose Uptake was measured using the Glucose Uptake-Glo™ Assay (Promega®) according to the manufacturer's protocol. The data generated were normalized by dividing the relative luminescence units (RLU) measured in insulin stimulated wells by vehicle treated controls. The aforementioned experiment was repeated in the presence of the CDK1 inhibitor, RO-3306 (10 μM), where indicated (FIG. 5C).", "data": [{"smiles": "O=C1NC(=NCc2cccs2)S/C1=C\\c1ccc2ncccc2c1", "note": "[RO-3306]", "values": [{"measurement": "insulin-stimulated glucose uptake under co-treatment", "result": "the effects of AZD3965 were attenuated"}]}]}
